# Measurements as given in patent publication US20250295627A1 (Leibniz-Institut Fuer Neurobiologie, priority 2022, published 2025).
# Where two headings read alike, the source gives them in different places.
# Key:
# [1] = assay type: in vivo, mouse; conditions: 50 mg/kg daily oral, treated versus control animals
# Excerpt: (§1) . For TBA2.1 mice (both sexes), treatment started at the age of 4 weeks. The animals were group housed and force fed for 4 weeks. […] Treatment in 5×FAD male mice started at the age of 12 weeks. Here, animals were single housed right away and given a choice between voluntary and forced feeding. […] During the course of the 7th week of treatment, animals were either subjected to perfusion to obtain their brains for subsequent immunohistochemistry or they were culled to obtained native brains for electrophysiological recordings.
# [2] = estimated life-long consumption of turkey meat; cited from earlier work
# TBA2.1 mice = experiment: Neuronal loss (NeuN-positive cells) in CA1 after oral Nitarsone; assay type: in vivo, mouse; conditions: versus vehicle-treated littermates
# Experimental: Animals were anesthetized with ketamine/xylazine (Medistar) and transcardially perfused with 0.9% saline followed by 4% PFA. The brains were post-fixed in 4% PFA in PBS overnight, followed by immersion in 0.5 M sucrose for 24 h and then 1M sucrose for another 1 to 2 days or until the brains were sunken down. The brains were snap-frozen and cut into 35 μm thick coronal cryosections (Leica CM3050S, Leica-Microsystems). The sections were blocked in a buffer (0.3% TX-100, 10% NGS in PBS) for 30 min at RT, and incubated with primary antibodies diluted in the blocking solution, overnight at 4° C. Secondary antibodies were applied for 2 h at RT. Sections were counterstained with DAPI and mounted in Mowiol 4-88 (Merck Chemicals). For the detection of Aβ, the heat-based antigen retrieval method was used. […]
# All quantifications were done within the distal CA1 region of the hippocampus. […] CREB and pCREB immunoreactivity of every single nucleus in a 100 μm stretch was measured in arbitrary units of pixel intensity. […] The neuronal loss was quantified based on NeuN staining (the number of neurons/CA1 length). For the quantification of microglia and astrocytes the number of cells based on overlaid DAPI and Iba-1 or GFAP signal was quantified within the rectangular ROI. Aβ plaques were counted in the region where the neuronal loss was quantified.
# CREB = assay type: in vivo, mouse; conditions: for CREB shutoff in dorsal hippocampal CA1: 50 mg/kg daily oral, 6 weeks
# Experimental: Animals were anesthetized with ketamine/xylazine (Medistar) and transcardially perfused with 0.9% saline followed by 4% PFA. The brains were post-fixed in 4% PFA in PBS overnight, followed by immersion in 0.5 M sucrose for 24 h and then 1M sucrose for another 1 to 2 days or until the brains were sunken down. The brains were snap-frozen and cut into 35 μm thick coronal cryosections (Leica CM3050S, Leica-Microsystems). The sections were blocked in a buffer (0.3% TX-100, 10% NGS in PBS) for 30 min at RT, and incubated with primary antibodies diluted in the blocking solution, overnight at 4° C. Secondary antibodies were applied for 2 h at RT. Sections were counterstained with DAPI and mounted in Mowiol 4-88 (Merck Chemicals). For the detection of Aβ, the heat-based antigen retrieval method was used. For anti-Aβ staining, following permeabilization, brain sections were immersed into […] sodium citrate solution (Fluka, pH=9) for 30 min at 80° C. Imaging of nuclear pCREB/CREB immunoreactivities in cryosections was performed using a Leica TCS SP5 system (Leica-Microsystems). Images were acquired sequentially with a HCX ApoL20×/1.0 water objective, optical zoom 4. Sections were imaged with constant laser/detector settings along the z-axis with 400 nm step in a 512×512 pixel format.
# as §1
# All quantifications were done within the distal CA1 region of the hippocampus. Fiji/ImageJ software (Schindelin et al., 2012) was used to calculate maximum intensity projection from five optical sections for each channel. CREB and pCREB immunoreactivity of every single nucleus in a 100 μm stretch was measured in arbitrary units of pixel intensity. ROls were defined based on NeuN and DAPI. The neuronal loss was quantified based on NeuN staining (the number of neurons/CA1 length). For the quantification of microglia and astrocytes the number of cells based on overlaid DAPI and Iba-1 or GFAP signal was quantified within the rectangular ROI. Aβ plaques were counted in the region where the neuronal loss was quantified.
compound,measurement,setting,value
"O=[N+]([O-])c1ccc([As](=O)(O)O)cc1 [Nitarsone, (4-nitrophenyl) arsonic acid]",body weight,[1],no effect on the body weight
same,increased lifetime risk of developing cancer,[2],0.00031%
same,early neuronal cell loss,TBA2.1 mice,reduced
same,CREB shutoff in dorsal hippocampal CA1,CREB; 5×FAD mice,effectively prevented CREB shutoff
same,CREB immunoreactivity in NeuN positive cells in CA1,"CREB; 5×FAD mice, 18 weeks old",rescues the reduction of CREB immunoreactivity
same,CREB shutoff in dorsal hippocampal CA1,CREB; TBA2.1 mice,effectively prevented CREB shutoff
same,CREB immunoreactivity in NeuN positive cells in CA1,"CREB; TBA2.1 mice, 11 weeks old",rescues the reduction of CREB immunoreactivity
